Like-named read-outs stand apart in the source and are kept apart here.
Experiments:
[1] = target: endogenous ALP in whole blood (Homo sapiens, UniProt P05186); conditions: for Positive control (S) measured value (count of luminescence): cTnI 10 ng/mL added
Description: Each sample was measured using a reagent kit for measuring cardiac troponin I (cTnI). The kit contained a solution of the first antibody specific to cTnI (a solution of magnetic particles), a solution of the labeled second antibody, a B/F washing liquid, a substrate solution, and the like, and was packaged in a cartridge applicable to an automated immunoanalyzer described below. In this example, a buffer not containing a labeled antibody was used, instead of the solution of the second antibody labeled with an alkaline phosphatase (hereinafter referred to as “ALP”). The measurement was carried out using an automated immunoanalyzer for an immunoassay using magnetic particles, as disclosed in Japanese Patent No. 3115501. […] The measuring step in the analyzer will be described below.
A chemiluminescent substrate CDP-Star (Tropics) was used as a substrate. A count of luminescence detected by a photomultiplier tube (PMT) was regarded as a result of the measurement.
Each cartridge for an automatic measurement was filled with each sample, a liquid for diluting a sample, the solution of magnetic particles (coated with the first antibody), the washing liquid for B/F separation, the solution of the second antibody, the substrate solution, and the like, and set to the automated analyzer. The following steps were carried out in accordance with a normal procedure: • (1) The sample solution, the solution of magnetic particles, and the solution of the second antibody, previously adjusted to predetermined dilutions with the diluting liquid, were mixed to generate an immunocomplex by an antigen-antibody reaction. • (2) A B/F separation was carried out to remove unreacted substances as follows. The resulting reaction liquid was aspirated into the tip arranged as a line for aspirating a solution, and the magnetic particles were trapped by contact with a magnet on the outer wall of the tip. The solution was delivered from the tip while trapping the magnetic particles on the inner wall of the tip. After the separation, the washing liquid for the B/F separation filled in another reaction vessel was aspirated and delivered to wash the magnetic particles in the tip. • (3) The magnet was separated from the outer wall of the tip. The substrate solution was aspirated and delivered to disperse the magnetic particles trapped on the inner wall of the tip and carry out an enzyme reaction. • (4) An amount of luminescence was measured by PMT.
(§1) The whole blood sample showing a high background in Example 1 was used as a whole blood negative control, and a plasma obtained by centrifuging the whole blood sample was used as a plasma negative control. Further, a sample obtained by adding a commercially available cTnI (10 ng/mL) to the whole blood sample was used as a whole blood positive control, and a plasma obtained by centrifuging the whole blood positive control was used as a plasma positive control. The obtained 4 samples were measured using the automated immunoanalyzer and the reagent kit for measuring cTnI, as described in Example 1 or 2, except that the ALP-labeled antibody was used as the second antibody.
(§2) Levamisole (SIGMA) was used to examine an inhibitory effect on an endogenous ALP. Levamisole was added to the solution of magnetic particles, the substrate solution, or both thereof at the final concentration of 0.2 mM. When levamisole was added to the solution of magnetic particles, the inhibitor acted in the measuring step (1) of the automated immunoanalyzer described in Example 1. When levamisole was added to the substrate solution, the inhibitor acted in the measuring step (3).

ALP used as the label = conditions: addition of levamisole 0.2 mM; positive control
Description: as §1, §2

endogenous ALP = endogenous ALP (Homo sapiens, UniProt P05186); conditions: 3 weeks
Sequence of endogenous ALP (P05186 18-501 limits assumed): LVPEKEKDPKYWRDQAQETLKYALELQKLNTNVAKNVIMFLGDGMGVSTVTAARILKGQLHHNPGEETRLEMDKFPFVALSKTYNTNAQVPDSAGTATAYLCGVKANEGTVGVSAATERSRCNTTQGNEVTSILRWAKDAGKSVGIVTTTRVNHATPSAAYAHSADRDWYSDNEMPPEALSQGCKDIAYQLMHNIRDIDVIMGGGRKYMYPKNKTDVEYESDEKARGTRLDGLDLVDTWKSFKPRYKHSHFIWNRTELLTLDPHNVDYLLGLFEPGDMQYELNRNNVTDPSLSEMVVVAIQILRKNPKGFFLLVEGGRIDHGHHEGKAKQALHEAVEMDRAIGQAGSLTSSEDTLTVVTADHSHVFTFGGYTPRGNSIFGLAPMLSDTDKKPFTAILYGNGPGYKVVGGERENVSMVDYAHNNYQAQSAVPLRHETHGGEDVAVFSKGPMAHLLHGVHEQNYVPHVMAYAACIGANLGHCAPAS
Description: To a solution containing 0.4 mM CDP-Star, levamisole was added to final concentrations of 0.4, 1.0 and 4.0 mM to prepare substrate solutions to be examined. As a control, a substrate solution containing 0.4 mM CDP-Star without levamisole was used. Each solution was kept at 4, 25, and 37° C. for 3 weeks, and each remaining activity was measured.
Further, the substrate solutions containing 0.4 mM levamisole and kept at 4° C. and 37° C. for 3 weeks were used to confirm the inhibitory effect of levamisole.

[2] = levamisole 0.2 mM in magnetic particles solution and substrate solution
[3] = levamisole 0.2 mM in substrate solution only
[4] = plasma (a), levamisole 0.2 mM in magnetic particles solution and substrate solution
[5] = plasma (a), levamisole 0.2 mM in substrate solution only
[6] = whole blood (b), levamisole 0.2 mM in magnetic particles solution and substrate solution
[7] = whole blood (b), levamisole 0.2 mM in substrate solution only

Sequence of endogenous ALP in whole blood (P05186 18-501 limits assumed): as above

c1ccc([C@H]2CN3CCSC3=N2)cc1 [levamisole]
increased background caused by an endogenous ALP in whole blood samples or hemolized samples ([1]; addition of levamisole 0.2 mM): suppressed
Negative control b/a (whole blood to plasma) [1, 2]: 2.33
Positive control b/a (whole blood to plasma) [1, 2]: 1.22
b/[levamisole (—) whole blood negative control] [1, 2]: 0.18
b/[levamisole (—) whole blood positive control] [1, 2]: 0.79
Negative control b/a (whole blood to plasma) [1, 3]: 2.41
Positive control b/a (whole blood to plasma) [1, 3]: 1.33
b/[levamisole (—) whole blood negative control] [1, 3]: 0.17
b/[levamisole (—) whole blood positive control] [1, 3]: 0.94
Positive control (S) measured value (count of luminescence) [1, 4]: 78622
Positive control (S) measured value (count of luminescence) [1, 5]: 84776
Negative control (N) measured value (count of luminescence) [1, 4]: 808
S/N (positive control to negative control) [1, 4]: 97.3
Negative control (N) measured value (count of luminescence) ([1]; plasma (a), levamisole 0.2 mM in substrate (CDP-star) solution only): 708
S/N (positive control to negative control) [1, 5]: 119.7
Positive control (S) measured value (count of luminescence) [1, 6]: 95856
Positive control (S) measured value (count of luminescence) [1, 7]: 113017
Negative control (N) measured value (count of luminescence) [1, 6]: 1883
S/N (positive control to negative control) [1, 6]: 50.9
Negative control (N) measured value (count of luminescence) ([1]; whole blood (b), levamisole 0.2 mM in substrate (CDP-star) solution only): 1705
S/N (positive control to negative control) [1, 7]: 66.3
effect on the ALP used as the label (ALP used as the label): did not adversely affect
count with stored substrate solution (inhibitory effect of levamisole) (endogenous ALP; 0.4 mM levamisole in 0.4 mM CDP-Star substrate solution kept at 4° C.): 4086
count with stored substrate solution (inhibitory effect of levamisole) (endogenous ALP; 0.4 mM levamisole in 0.4 mM CDP-Star substrate solution kept at 37° C.): 2920

Reference: patent US20070141645A1, “Measuring method using whole blood” (MITSUBISHI KAGAKU IATRON, INC., priority 2005, published 2007)
